What was measured:
Format in all cases: cell-based
PANC-1 cells = test: Test I: apoptosis of PANC-1 pancreatic cancer cells (Annexin V-FITC/PI); settings: 1 μM, 48 h
Procedure: Pancreatic cancer cell lines (COLO357, PANC-1, Capan-2, AsPc-1 cells and MiaPaCa-2 cells obtained from American Type Culture Collection; ATCC, Rockville, Md.) were treated with 1 μM 3-Cl-AHPC and compound 16 for various times. Apoptosis in cells were analyzed by flow cytometry using Annexin V-FITC binding together with propidium iodide (PI) staining (Annexin V-FITC apoptosis Detection Kit 1, BD Biosciences, San Diego, Calif.). Data acquisition was done on a FACS Calibur flow cytometer (BD) and analyzed with CellQuest software (BD Biosciences). 3-Cl-AHPC and compound 16 mediated inhibition of cell growth were determined by 3-(4,5-dimethylthiazol-2-yl)-2,5-diphenyltetrazolium bromide (MTT) assay. The cells were seeded on 96-well plates at a density of 4×10^4 cells/well in a volume of 200 μl culture medium. 1 μM AHP3 and 3-Cl-AHPC in DMSO (final concentration 0.1%) were added to the cells for various times. […] After discarding the medium, MTT precipitates were solubilized with 200 μl DMSO and the plates read on a BioTeK Synergy HT (BioTeK Instrument Inc., Vermont) at an absorbance 570 nm. […] The spheroids were stained with acridine orange/ethidium bromide staining and immediately visualized and photographed with fluorescence microscope (OLYMPUS CKX41). […] Then spheroids were visualized and photographed with a fluorescence microscope.

[1] = system: pancreatic cancer stem cell spheroids; test: Test J: disaggregation of and apoptosis in pancreatic cancer stem cell spheroids; settings: for effect on formed spheroids: added to pancreatic cancer stem cell spheroids; for exposure resulting in disaggregation of the spheroid and induction of apoptosis: as little as
Procedure: Apoptosis and Growth Inhibition of Pancreatic Cancer Stem Cells (Obtained from PANC-1, Capan-2 and MiaPaCa-2 Cells) by Compound 16 and 3-Cl-AHPC.
The sorted CD44^+/CD24^+ cells were suspended in serum-free stem cell medium containing DMEM/F12 (1:1) supplemented with B27 (Life Technologies, Gaithersburg, Md.), 20 ng/ml EGF (Biomol International, Plymouth, Pa.)), 20 ng/ml fibroblast growth factor (Biomol International, Plymouth, Pa.), and 100 μg/ml gentamycin. Approximately 150-200 cells per well were seeded in an ultra low-attachment 96-well plate (Corning Inc, Lowell, Mass.). 3-Cl-AHPC and compound 16 were added the day after cells were plated or after 7 days of spheroid formation. Spheriods were photographed and measured utilizing a Olympus microscope (OLYMPUS CKX41) and Olympus microscope digital camera with DP2-BSW software (Olympus soft imaging solutions GmbH, Germany).
DMSO (vehicle) and 3-Cl-AHPC treated spheroids were centrifuged at 1000 rpm for 5 minutes, washed in PBS, 22% bovine serum albumin added to the spheroids pellet, 95% ethanol placed on the spheroids pellet and the pellet allowed to harden for 30 minutes. Neutral buffered formalin (10%) was added to fix the cell pellet for at least 2 h and the spheroids were then placed in a labeled plastic tissue embedding cassette containing 10% neutral buffered formalin overnight. The spheroids were processed in a Sakura Tissue-Tek Processor for overnight dehydration in graded ethanol, clearing in xylene and infiltration with paraffin. The spheroids were placed in a 4 μm embedding mold for final paraffin embedding.
The TUNEL assay was performed using the In Situ Cell Death Detection kit, POD (Roche-Applied-Science, Mannheim, Germany) according to the manufacturer's instructions.
The paraffin embedding spheroids were deparaffinized and rehydrated, then tissues sections were incubated with proteinase K solution (10-20 μg/ml) for 30 min. Tissues were then rinsed twice in PBS and reacted with 50 μl of the TUNEL reaction mixture at room temperature for 60 min in a dark, humidified chamber. Sections were again rinsed in PBS and incubated for 30 min with 50 μl of the Converter-POD (RocheApplied-Science) and followed by 3-amino-9-ethylcarbazole (AEC). Sections were then counterstained with hematoxylin. As negative controls, corresponding sections were treated in the same way without terminal, deoxynucleotidyl transferase.

[2] = system: poly(ADP-ribose)polymerase (PARP); test: Test C: PARP cleavage; settings: FFMA-AML and TF(v-SRC) cells
Description: FIG. 5 illustrates compound 16-mediated inhibition of XIAP, c-IAP1, and phospho-Bad expression in FFMA-AML and TF(v-SRC) cells accompanied by the induction of PARP cleavage. A) XIAP, c-IAP and phospho-Bad protein expression following exposure to compound 16 assessed by Western blot. B)-D) Protein expression levels quantified using laser densitometry. The expression levels of XIAP, c-IAP1 and phospho-Bad were normalized to the respective α-tubulin level and compared to their relative levels in the controls, which were given an arbitrary value of 1.
The proteins c-IAP1, c-IAP2, and XIAP bind caspases resulting in inhibition of caspase activity (Jin H-S. et al., Cancer Res. 2009; 69:[…]). […] The Bcl-2 family member Bad enhances apoptosis and is inactivated through phosphorylation to phosphorylated Bad (Eisenmann K. M. et al., Cancer Res. 2003; 63:8330-8337). To assess modulation of anti-apoptotic protein expression during the induction of apoptosis in the AML cells by compound 16, the expression of XIAP, c-IAP1 and phospho-Bad as well as cleavage of the DNA-damage repair poly(ADP-ribose)polymerase (PARP) was assessed following exposure of the AML cells to compound 16.

**Q.** For `O=C(O)C=Cc1ccc(-c2ccc(O)c(C34CC5CC(CC(C5)C3)C4)c2)c(Cl)c1` [Compound 3-Cl-AHPC, 4-[3-(1-adamantyl)-4-hydroxyphenyl]-3-chlorocinnamic acid, reference compound], which “cells in which induction of apoptosis was noted” value (PANC-1 cells) is on record?
**A.** The value was 50%.

**Q.** And the “effect on formed spheroids” value [1]?
**A.** Its value is “resulted in their disaggregation and the induction of apoptosis in the cells comprising the spheroid”.

**Q.** And the “exposure resulting in disaggregation of the spheroid and induction of apoptosis” value [1]?
**A.** The value was 500 nM.

**Q.** Which results are given for `O=C(O)/C=C/c1cnc(-c2ccc(O)c(C34CC5CC(CC(C5)C3)C4)c2)nc1` [Compound 16, (E)-3-[2-(3-(1-Adamantyl)-4-hydroxyphenyl)-5-pyrimidinyl]-2-propenoic acid]?
**A.** cells in which induction of apoptosis was noted (PANC-1 cells): 50%; cleavage of PARP [2]: cleavage of PARP was noted; effect on formed spheroids [1]: resulted in their disaggregation and the induction of apoptosis in the cells comprising the spheroid; exposure resulting in disaggregation of the spheroid and induction of apoptosis [1]: 500 nM
